According to patent US20050037436A1, “Test systems and the use thereof for identifying and characterizing compounds” (priority 2000, published 2005):
“Also recorded” adds a separate entry of the source. Like-named read-outs stand apart in the source and are kept apart here.

Legend:
HC110-R [1] = format: cell-based, Haemonchus contortus; settings: for Ca2+ response to substance alone: 400 ng/ml where stated, up to 50 min or 90 min preincubation
Experimental: (§1) The intracellular free Ca^2+ concentration [Ca^2+]i was measured in COS-7 and HEK293 cells transiently transfected with the HC110-R-EGFP or β2-AR-EGFP construct using the calcium imaging method (see also FIG. 11). In each case 2×10^5 COS-7 and HEK293 cells were applied to a 42 mm cover glass coated with 1% gelatine in 55 mm tissue culture dishes with 5 ml of DMEM medium (with 10% FCS and pen/strep). The transfection took place with the aid of the non-liposomal transfection reagent FuGENE 6 (Roche Molecular Biochemicals, Mannheim). […] Constructs of the HC110-R full-length clone with a GFP tag fused in the correct reading frame, and the complete cDNA of the β2-adrenergic receptor which had likewise been provided with a GFP tag at the 3′ end, were transfected.
(§2) After the incubation, the cells loaded with Fura-2/AM were examined under an inverted microscope (Zeiss, Axiovert, Germany) and, in parallel with this, in a digital imaging fluorescence microscope (PTI) and differentiated into transfected and untransfected cells at a wavelength of 440 and 490 nm respectively. On average, 5-7 transfected and non transfected cells were selected by fixing an ROI (region of interest). The extinction was measured at 340 nm (calcium-bound Fura-2/AM) and 380 nm (free Fura-2/AM), and the emission was measured at 510 nm. Evaluation took place using the Image Master 1.x software by forming the quotient of 340:510 nm, 380:510 nm and the ratio of 340/380:510 nm (background corrected images) as a function of the agent added.
Agents were always added 6 min after starting the measurement by removing an appropriate volume of Na^+ HBS buffer and pipetting the agent directly into the sample vessel for a further 30 to 50 min. The total volume in the sample vessel was constant at 1.5 ml throughout the experiment. […] Addition of CdCl2 and nifedipine took place immediately at the start of the experiment and before addition of α-LTX, and EGTA was added both at the start of the experiment and 4 min after the addition of α-LTX. Dissolved α-LTX was present in a concentration of 300 nM in 50 mM tris-HCl, pH 8.0; BAY 44-4400 was initially dissolved in pure DMSO (stock solutions between 0.004 and 10 μg/ml). The stock solutions were adjusted to the required concentration in the Na^+ HBS buffer. The maximum amount of the active substance BAY 44-4400 which could be dissolved at a final concentration of 0.1% DMSO was found by setting up serial dilutions in Na^+ HBS.
The data were analyzed using the Excel 98 table calculation programme. The results are derived from at least 2-4 reproduced experiments on in each case 4-8 transfected and un-transfected cells.

[2] = target: T1, mouse β2-adrenergic receptor (Mus musculus, UniProt P18762); experiment: Ca2+ imaging of HEK-293 cells transfected with β2-R-GFP (control); format: cell-based; settings: BAY 44-4400 present
T1 construct: was fused with a C-terminal EGFP tag by amplifying the full-length cDNA with the P117 mouse 2AR XhoI 5′ primer; expressed in transfected cells; host or cells: HEK-293, transient (pEGFP-N3)
Experimental: as §1, §2
Agents were always added 6 min after starting the measurement by removing an appropriate volume of Na^+ HBS buffer and pipetting the agent directly into the sample vessel for a further 30 to 50 min. The total volume in the sample vessel was constant at 1.5 ml throughout the experiment. […] Addition of CdCl2 and nifedipine took place immediately at the start of the experiment and before addition of α-LTX, and EGTA was added both at the start of the experiment and 4 min after the addition of α-LTX. […]
The data were analyzed using the Excel 98 table calculation programme. […]

HC110-R [3] = format: binding, Haemonchus contortus
From the text: Since denaturation of proteins is necessary for carrying out SDS-PAGE, there may be destruction of conformation-dependent epitopes. Antibodies or proteins which specifically recognize such epitopes may therefore no longer bind. […] BAY44-4400 differs from PF1022A by 2 morpholine residues which are covalently bonded to the phenyl rings of the two D-phenyllactyl radicals of PF1022A. […] For this purpose, total protein from untransfected HEK-293 cells and HEK-293 cells which transiently express HC110-R-Myc/His, and from the 54 kDa N terminus and the 21 kDa C terminus of HC110-R which were expressed in E. coli, were fractionated by SDS-PAGE, renatured and blotted in the usual way. […] In addition, a partially renatured SDS polyacrylamide gel with the protein fractions of untransfected HEK-293 cells, HEK-293 cells transiently transfected with HC110-R-Myc/His, and the N terminus of HC110-R expressed in E. coli and total protein from H. contortus was blotted, incubated with PF1022A-biotin and detected using streptavidin HRP.

[4] = 4 ng/ml added 6 min before 75 nM α-LTX

T1 sequence (P18762 whole entry, the tested form may be a part): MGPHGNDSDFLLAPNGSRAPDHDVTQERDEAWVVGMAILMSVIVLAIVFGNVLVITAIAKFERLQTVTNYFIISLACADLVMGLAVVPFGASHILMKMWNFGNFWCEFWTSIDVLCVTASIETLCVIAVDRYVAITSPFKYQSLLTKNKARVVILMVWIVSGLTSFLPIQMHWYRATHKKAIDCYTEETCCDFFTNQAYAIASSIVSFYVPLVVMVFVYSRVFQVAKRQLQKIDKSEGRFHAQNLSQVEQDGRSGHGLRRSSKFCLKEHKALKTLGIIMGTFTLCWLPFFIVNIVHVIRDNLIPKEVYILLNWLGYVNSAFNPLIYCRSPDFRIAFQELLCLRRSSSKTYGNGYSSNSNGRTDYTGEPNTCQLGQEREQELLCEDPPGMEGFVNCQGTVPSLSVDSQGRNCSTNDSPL

CC(C)C[C@H]1C(=O)O[C@H](Cc2ccc(N3CCOCC3)cc2)C(=O)N(C)[C@@H](CC(C)C)C(=O)O[C@H](C)C(=O)N(C)[C@@H](CC(C)C)C(=O)O[C@H](Cc2ccc(N3CCOCC3)cc2)C(=O)N(C)[C@@H](CC(C)C)C(=O)O[C@H](C)C(=O)N1C [BAY44-4400, cyclo(-D-Lac-L-MeLeu-D-p-morpholinyl-PhLac-L-MeLeu-)]
first small α-LTX-induced increase in [Ca2+]i (HC110-R [1]; [4]): disappeared | α-LTX-induced increase in [Ca2+]i in presence of substance (HC110-R [1]; [4]): 44 ± 6.0 nM | change in [Ca2+]i after preincubation with substance alone (HC110-R [1]; 4 ng/ml or 400 ng/ml, 90 min preincubation, no α-LTX): no change in [Ca^2+]i | α-LTX-induced increase in [Ca2+]i after preincubation (HC110-R [1]; 4 ng/ml, 90 min preincubation, substance removed, then 75 nM α-LTX): 95 ± 20.5 nM | plateau of [Ca2+]i after the peak (HC110-R [1]; 4 ng/ml, 90 min preincubation, then 75 nM α-LTX): 23 ± 2.6 nM | change in [Ca2+]i, BAY44-4400 given with piperazine (HC110-R [1]; 400 ng/ml BAY44-4400 + 1 or 10 μM piperazine, untransfected and HC110-R-GFP-transfected cells): no change in [Ca^2+]i was detectable | α-LTX-induced increase in [Ca2+]i in presence of substance (HC110-R [1]; 400 ng/ml added 6 min before 75 nM α-LTX): 49 ± 4.2 nM | plateau of [Ca2+]i above initial values after the peak (HC110-R [1]; 400 ng/ml added 6 min before 75 nM α-LTX, 8 min after peak): 11 ± 1.4 nM | delay of the α-LTX-induced increase (HC110-R [1]; 400 ng/ml versus 4 ng/ml, 90 min preincubation): 12 min | Ca2+ response to substance alone (HC110-R [1]; no α-LTX): does not influence the Ca^2+ concentration; also recorded: neither the very effective nematicide BAY44-4400 nor the virtually ineffective antipode PF1022-001 induces a Ca^2+ response | Ca2+ response to substance alone (HC110-R [1]; no α-LTX, listed as BAY 44-4400): in no comparable way with a change in the intracellular Ca^2+ concentration | Ca2+-mediated response to substance alone (HC110-R [1]; 100, 300 or 400 ng/ml and 1 or 10 μg/ml, 50 min, untransfected and HC110-R-GFP-transfected cells): At no concentration was a Ca^2+-mediated response detectable | mode of action on α-LTX signalling (HC110-R [1]; HC110-R-transfected HEK-293 cells): acts as antagonist of α-LTX | first small α-LTX-induced increase in [Ca2+]i (HC110-R [1]; incubation 6 minutes before 75 nM α-LTX): disappears | reduction of second α-LTX-induced increase (HC110-R [1]; incubation 6 minutes before 75 nM α-LTX, 15 minutes after α-LTX): 85% | first α-LTX-induced increase in Ca2+ (HC110-R [1]; preincubated 60 minutes before 30 minutes FURA loading, 75 nM α-LTX): complete disappearance | second α-LTX-induced increase in [Ca2+]i (HC110-R [1]; preincubated 60 minutes before 30 minutes FURA loading, 30 minutes after 75 nM α-LTX): 70 nM | effect on isoproterenol-induced Ca2+ increase [2]: does not interfere with the isoproterenol-induced signal transmission | effect on isoproterenol-induced Ca2+ increase ([2]; listed as BAY 44-4400): unaffected by BAY 44-4400 | HC110-R-specific binding in a Western blot (HC110-R [3]; denatured proteins, no renaturation): not identifiable | band in HEK-293 cells expressing HC110-R-Myc/His (HC110-R [3]; renatured with urea, no band in untransfected cells): distinct band 116 kDa in size | binding to 54 kDa N terminus of HC110-R (HC110-R [3]; renatured, fragment expressed in E. coli): bound to the 54 kDa N terminus of HC110-R
